Columns and labels:
Format in all cases: cell-based, human
[1] = test system: normal hematopoietic progenitor cells (normal bone marrow MNC); assay: CFU-GM colony formation of normal hematopoietic progenitor cells; details: Table 3; 40 μg/ml at 0 h, 20 μg/ml 18 h later; 12 days; mean ± SD; control 263 ± 10
Excerpt: (§1) Normal bone marrow mononuclear cells (MNC) were obtained by aspiration from consenting volunteers and enriched for hematopoietic progenitors as previously reported by numerous investigators (Zamecnick et al., Proc. Natl. Acad. Sci. U.S.A. 83, 4143-4147 (1986); Caracciolo et al., J. Clin. Invest. 85, 55-61 (1990)). In brief, marrow cells were subjected to Ficoll-Hypaque density gradient sedimentation and then depleted of adherent monocyte-macrophage and T-lymphocytes by adherence to plastic Petri dishes and rosetting with neuraminidase-treated sheep red blood cells, respectively. Philadelphia chromosome-positive blast cells were isolated by Ficoll-Hypaque density gradient sedimentation from a CML patient in blast crisis (L-6 type junction). […] The residual non-blast cells had the morphological appearance of small lymphocytes. 25,000 MNC and 25,000 CML blast cells were combined and incubated with bcr-abl breakpoint-Specific antisense oligomer (SEQ ID NO:3) (40 μg/ml at h 0; 20 μg/ml 18 hours later) or with a 4 nucleotide mismatch bcr-abl antisense oligomer (SEQ ID NO:2) (40 μg/ml at 0 h; 20 μg/ml 18 hours later) or left untreated. […] At the end of the incubation period colonies were counted. […]

[2] = test system: Philadelphia chromosome-positive blast cells of CML patients in blast crisis, L-6 (b2a2) type junction; assay: Colony formation of CML blast crisis patient cells expressing the b2a2 (L-6) junction; details: 10 days in semi-solid culture (FIG. 2)
Procedure: Leukemia cells were obtained from the marrow of the posterior iliac crest of five CML patients in blast crisis. The cells were diluted 1:2 in Iscove's modified Dulbecco medium (IMDM) to form a cell suspension. Philadelphia chromosome-positive blast cells were isolated by Ficoll-Hypaque density gradient sedimentation to remove non-mononuclear cells. Accordingly, the bone marrow cell suspension was gently overlayed on a Histopaque density gradient (Sigma Chemical Co., St. Louis, Mo.) in a 2:1 ratio, and then spun down for 30 min. at 1500 rpm and 18° C. Cells remaining in the interface layer after centrifugation were collected using a Pasteur pipet, and washed with IMDM at 1000 rpm and […] for 10 min.
Cells plated into methyl cellulose semisolid media after 7-11 days of culture were recovered from the medium. Total RNA was isolated according to the procedure of Chomczynski et al, Anal. Biochem. 162, 156-159 (1987). The RNA ([…]) isolated from one patient having particularly exuberant cell growth was annealed with the 3' RT-PCR primer GCTTCACACC ATTCCCCATTGT (SEQ ID NO:10) complementary to 22 nucleotides of c-abl exon 2 for 30 minutes at 37° C. Following annealing of the 3' primer, the RNA was reverse transcribed with 500 units of Moloney murine leukemia virus reverse transcriptase at 37° C. for 1 hour. The reaction was stopped and the mixture diluted in 1 x Thermus aquaticus (Taq) polymerase buffer. A 5' primer, the 22 nucleotide oligomer CACAGCATTCCGCTGACCATCA (SEQ ID NO: 11) complementary to bcr exon 2 and additional c-abl exon 2 3' primer were added to a final concentration of 2 ng/μl each with 2.5 units of Taq polymerase for amplification of the cDNA fragments. Sixty cycles of PCR were performed in a Perkin Elmer Thermal Cycler by annealing at 55° C., synthesizing at 72° C. and denaturing at 95° C. The amplification product, corresponding to the b2a2 junction, was thereafter separated on a 2% agarose gel. The band containing the bcr-abl fragment was cut out and cleaned according to a standard technique utilizing a GENE-CLEAN™ kit (Bio 101, Inc.), cloned by blunt end ligation in the BLUESCRIPT SK vector (Stratagene Cloning Systems) linearized by SMA I digestion. Several individual clones were then sequenced using the SEQUENASE™ version 2.0 enzyme (United States Biochemical Corp., Cleveland, Ohio), according to the sequence protocol recommended by the manufacturer. Accordingly, the denatured bcr-abl DNA fragments were annealed with specific primers which flank the cloning site in the BLUESCRIPT SK vector, in the presence of SEQUENASE™ reaction buffer for 15 min. at 37° C. The primer-annealed fragments were incubated at room temperature with SEQUENASE™ version 2.0 enzyme and α-S^35 dAT at 37° C. Subsequently, labelled template-primer complexes were transferred to tubes containing A, T, C and G nucleotides (one nucleotide per tube) and incubated 5-30 min. at 37° C. The samples were then loaded on a previously prepared acrylamide gel, and run for approximately 10 hours. The sequencing gel was dryed, and the film exposed O/N. Sequence analysis of several of the individual clones identified the bcr-abl junction as having the cDNA sequence shown in FIG. 1 (SEQ ID NO:1). The arrow in the figure indicates the bcr-abl breakpoint junction, and the box delineates the 18 nucleotides corresponding to the junction, which forms a preferred target sequence for hybridization of antisense oligomer. The junction corresponds precisely to the L-6 type breakpoint reported by Shtivelman et al., Cell 47, 277 (1986), in which the bcr exon 2 is fused to c-abl exon 2.
In a similar manner, L-6 type junctions were identified in the remaining CML blast crisis patients by hybridization of RT-PCR amplification products derived from blast crisis CML RNA using a synthetic 18-mer GAAGGGCTTC TTCCTTAT (SEQ ID NO:3) specific for the 18-nucleotide target sequence of the L-6 bcr-abl junction. […]

[3] = test system: 1:1 mix of normal MNC and CML blast crisis cells; assay: Morphology (Giemsa staining) of cells from residual colonies
Excerpt: as §1

[4] = test system: CML blast crisis cells (L-6 type junction); assay: CFU-L colony formation of CML blast crisis cells (Example 3); details: Table 3; 40 μg/ml at 0 h, 20 μg/ml 18 h later; 12 days; mean ± SD; control 806 ± 70
Excerpt: Normal bone marrow mononuclear cells (MNC) were obtained by aspiration from consenting volunteers and enriched for hematopoietic progenitors as previously reported by numerous investigators (Zamecnick et al., Proc. Natl. Acad. Sci. U.S.A. 83, 4143-4147 (1986); Caracciolo et al., J. Clin. Invest. 85, 55-61 (1990)). In brief, marrow cells were subjected to Ficoll-Hypaque density gradient sedimentation and then depleted of adherent monocyte-macrophage and T-lymphocytes by adherence to plastic Petri dishes and rosetting with neuraminidase-treated sheep red blood cells, respectively. Philadelphia chromosome-positive blast cells were isolated by Ficoll-Hypaque density gradient sedimentation from a CML patient in blast crisis (L-6 type junction). […] The residual non-blast cells had the morphological appearance of small lymphocytes. 25,000 MNC and 25,000 CML blast cells were combined and incubated with bcr-abl breakpoint-Specific antisense oligomer (SEQ ID NO:3) (40 μg/ml at h 0; 20 μg/ml 18 hours later) or with a 4 nucleotide mismatch bcr-abl antisense oligomer (SEQ ID NO:2) (40 μg/ml at 0 h; 20 μg/ml 18 hours later) or left untreated. Four hours after the second addition of oligonucleotides to the cultures, cells were seeded into duplicate methylcellulose dishes containing IL-3 (20 U/ml) and GM-CSF (5 ng/ml) and allowed to grow for an additional 12 days. At the end of the incubation period colonies were counted.
The data is shown in Table 3, below, wherein values represent mean ± standard deviation of duplicate control cultures (no oligonucleotide added) and duplicate experimental cultures from two separate experiments. Colony forming unit-granulocyte macrophage (CFU-GM)-derived colonies consisted of 50 or more cell aggregates, while CFU-GM-derived clusters were defined as aggregates of between 4 and 40 cells. These are normal hematopoietic colonies derived from progenitors with the capability to differentiate along the granulocytic and macrophage lineages. […]

[5] = test system: 1:1 mixtures of normal marrow progenitors and CML blast crisis cells; assay: CFU-GM + CFU-L colony formation of 1:1 mixtures of normal marrow progenitors and CML blast crisis cells; details: Table 3; 1:1 mixture; 40 μg/ml at 0 h, 20 μg/ml 18 h later; 12 days; mean ± SD; control 978 ± 24
Excerpt: as §1

SEQ ID NO:2: mismatched (4 nucleotide substitutions) bcr-abl antisense oligomer GAACGGCATC TACGTTAT (antisense GAACGGCATCTACGTTAT; further chemistry not given here) [reference compound]
Colonies or Clusters, CFU-GM [1]: 265 ± 6 colonies or clusters | colonies of blast cells formed [2]: formed numerous colonies of blast cells | morphology of cells isolated from residual colonies [3]: heterogeneous and consisted of blast cells and a variety of differentiating elements | Colonies or Clusters, CFU-L (colonies formed from CML blast crisis cells) [4]: 786 ± 23 colonies or clusters | Colonies or Clusters, CFU-GM + CFU-L [5]: 900 ± 46 colonies or clusters
